Experimental findings from patent US8524755B2 (priority 2009, dated 2013) are described below.

One assay addresses T1, Dopamine D1 (h) (Homo sapiens, UniProt P21728).
T1 construct: expressed in transfected cells; host or cells: CHO cells
The experiment in a line: Binding D1 (h) (aa). Particulars: read-out: % Inhibition of Control Specific Binding @ 10 μM. On the procedure:
(§1) Radioligand binding assay methods utilized to measure the activity of compounds of the invention will be familiar to those skilled in the art. In each assay case, the assay components such as, for example, the cell-type, ligand, reference compound and the like, will be familiar to practitioners of such an assay.
(§2) Analysis and Expression of Results: Compounds of the invention were tested in the biochemical assays and percent inhibition of specific binding was determined. The specific ligand binding to the receptors is defined as the difference between the total binding and the nonspecific binding determined in the presence of an excess of unlabelled ligand. The results are expressed as a percent inhibition of control specific binding (100−((measured specific binding/control specific binding)×100)) obtained in the presence of test compounds.

The next assay has as its system Adrenergic α1 (ns). Nature of the assay: Binding α1 (ns) (aa). On the set-up: species or system rat. On the procedure:
as §1, §2

A further assay relates to kainate. Nature of the assay: Binding kainate (ag). Also noted: species or system rat. Here is the method:
as §1, §2

In a further assay the target is T2, Bradykinin B1 (h) (Homo sapiens, UniProt P46663).
T2 construct: expressed in transfected cells; host or cells: CHO cells
T2 sequence (P46663 1-353): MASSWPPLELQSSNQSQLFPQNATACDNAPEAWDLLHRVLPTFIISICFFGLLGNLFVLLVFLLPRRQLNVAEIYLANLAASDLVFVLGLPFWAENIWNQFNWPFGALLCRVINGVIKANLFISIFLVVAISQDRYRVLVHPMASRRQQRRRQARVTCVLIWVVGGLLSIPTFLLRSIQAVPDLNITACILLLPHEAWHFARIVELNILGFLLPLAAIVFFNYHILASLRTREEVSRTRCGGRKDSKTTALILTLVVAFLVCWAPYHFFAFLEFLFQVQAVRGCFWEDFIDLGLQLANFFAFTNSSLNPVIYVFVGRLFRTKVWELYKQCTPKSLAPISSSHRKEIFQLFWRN
Nature of the assay: Binding B1 (h) (ag). The following applies: read-out: % Inhibition of Control Specific Binding @ 10 μM. Here is the method:
as §1, §2

The next assay deals with PCP. Nature of the assay: Binding PCP (aa). On the set-up: species or system rat. Here is the method: as §1, §2
A further assay concerns the target T3, Neurokinin NK1 (h) (Homo sapiens, UniProt P25103).
T3 construct: (endogenous); endogenous in cells; host or cells: U-373MG cells
The experiment in a line: Binding NK1 (h) (ag). Particulars: read-out: % Inhibition of Control Specific Binding @ 10 μM. Here is the method:
as §1, §2

For assay [1], the target named is T4, human GABAA α1β3γ2 receptor (Homo sapiens, UniProt P14867+P18507+P28472).
T4 construct: expressed in transfected cells; host or cells: Xenopus laevis oocytes, cDNA injection
The experiment in a line: GABAA Functional Assay, α1β3γ2, Xenopus oocytes. In kind it is cell-based.

For the next assay, the system named is AMPA. Nature of the assay: Binding AMPA (ag). Also noted: species or system rat. Here is the method:
as §1, §2

The target of the next assay is T5, GABA transaminase (Rattus norvegicus, UniProt P50554).
T5 construct: rat brain; from tissue; host or cells: rat brain
Nature of the assay: Enzyme assay GABA transaminase. The following applies: read-out: % Inhibition of Control Values @ 10 μM. In kind it is biochemical. The text has this:
The enzyme assays provided below will be familiar to those skilled in the art.
Analysis and Expression of Results: The results are expressed as a percent of control specific activity ((measured specific activity/control specific activity)×100) obtained in the presence of the test compounds.

T1 sequence (P21728 whole entry): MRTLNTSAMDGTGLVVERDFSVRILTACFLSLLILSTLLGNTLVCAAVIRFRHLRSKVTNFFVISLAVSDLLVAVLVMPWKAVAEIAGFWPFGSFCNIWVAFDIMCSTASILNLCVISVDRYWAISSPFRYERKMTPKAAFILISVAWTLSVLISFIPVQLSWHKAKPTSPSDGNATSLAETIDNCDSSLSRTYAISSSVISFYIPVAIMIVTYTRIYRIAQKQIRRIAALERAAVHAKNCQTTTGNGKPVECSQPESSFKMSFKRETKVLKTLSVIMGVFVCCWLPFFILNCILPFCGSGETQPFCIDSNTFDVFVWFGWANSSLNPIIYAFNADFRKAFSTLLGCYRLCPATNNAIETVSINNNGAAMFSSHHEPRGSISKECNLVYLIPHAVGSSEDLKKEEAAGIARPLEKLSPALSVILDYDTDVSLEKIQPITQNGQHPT
T5 sequence (P50554 28-500): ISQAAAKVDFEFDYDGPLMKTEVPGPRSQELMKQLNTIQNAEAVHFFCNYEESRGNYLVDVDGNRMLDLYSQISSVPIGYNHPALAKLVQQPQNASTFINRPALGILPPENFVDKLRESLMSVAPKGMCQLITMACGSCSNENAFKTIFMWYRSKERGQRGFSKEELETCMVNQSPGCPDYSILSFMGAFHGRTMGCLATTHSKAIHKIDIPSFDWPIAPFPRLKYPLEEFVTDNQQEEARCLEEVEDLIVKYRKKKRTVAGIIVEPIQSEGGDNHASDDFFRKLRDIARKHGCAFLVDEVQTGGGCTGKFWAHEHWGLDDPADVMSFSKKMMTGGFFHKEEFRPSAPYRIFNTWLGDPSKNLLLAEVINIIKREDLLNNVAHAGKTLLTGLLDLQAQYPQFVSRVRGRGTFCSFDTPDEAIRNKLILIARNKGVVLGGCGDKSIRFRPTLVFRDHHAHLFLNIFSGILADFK
T3 sequence (P25103 whole entry): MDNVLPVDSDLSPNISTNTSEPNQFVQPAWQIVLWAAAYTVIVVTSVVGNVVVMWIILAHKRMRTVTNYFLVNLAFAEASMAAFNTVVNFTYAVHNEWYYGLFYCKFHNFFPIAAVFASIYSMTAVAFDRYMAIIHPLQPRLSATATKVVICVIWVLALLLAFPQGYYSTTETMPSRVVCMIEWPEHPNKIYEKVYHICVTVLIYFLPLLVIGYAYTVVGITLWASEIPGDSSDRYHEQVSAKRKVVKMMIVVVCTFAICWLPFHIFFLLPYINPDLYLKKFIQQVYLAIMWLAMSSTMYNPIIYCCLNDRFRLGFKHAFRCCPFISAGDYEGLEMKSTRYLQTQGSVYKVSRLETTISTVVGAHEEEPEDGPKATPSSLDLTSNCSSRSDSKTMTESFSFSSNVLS
T4 sequence (P14867 28-456): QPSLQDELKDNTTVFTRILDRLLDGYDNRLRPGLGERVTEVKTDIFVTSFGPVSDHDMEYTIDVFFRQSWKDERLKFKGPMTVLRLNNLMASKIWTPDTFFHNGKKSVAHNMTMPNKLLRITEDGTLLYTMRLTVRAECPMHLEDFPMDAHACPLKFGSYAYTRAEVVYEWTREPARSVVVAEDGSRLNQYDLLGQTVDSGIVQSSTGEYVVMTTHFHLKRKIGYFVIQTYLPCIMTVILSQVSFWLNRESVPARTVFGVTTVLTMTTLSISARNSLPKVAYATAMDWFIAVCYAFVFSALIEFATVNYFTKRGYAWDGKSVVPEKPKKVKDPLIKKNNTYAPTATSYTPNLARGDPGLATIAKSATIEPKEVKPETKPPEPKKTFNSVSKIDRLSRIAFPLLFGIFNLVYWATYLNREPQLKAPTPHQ
T4 sequence (P28472 26-473): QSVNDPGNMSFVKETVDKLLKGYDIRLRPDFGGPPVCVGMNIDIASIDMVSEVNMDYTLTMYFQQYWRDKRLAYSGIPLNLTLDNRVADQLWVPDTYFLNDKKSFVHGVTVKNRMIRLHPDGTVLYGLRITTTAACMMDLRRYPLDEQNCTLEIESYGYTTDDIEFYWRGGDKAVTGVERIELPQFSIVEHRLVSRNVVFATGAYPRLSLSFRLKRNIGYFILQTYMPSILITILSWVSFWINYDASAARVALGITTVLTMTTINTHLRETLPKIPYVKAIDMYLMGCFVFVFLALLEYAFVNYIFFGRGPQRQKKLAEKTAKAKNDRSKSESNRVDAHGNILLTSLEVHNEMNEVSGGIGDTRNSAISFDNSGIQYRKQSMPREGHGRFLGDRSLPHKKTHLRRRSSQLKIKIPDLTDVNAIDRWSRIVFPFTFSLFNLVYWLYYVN
T4 sequence (P18507 40-475): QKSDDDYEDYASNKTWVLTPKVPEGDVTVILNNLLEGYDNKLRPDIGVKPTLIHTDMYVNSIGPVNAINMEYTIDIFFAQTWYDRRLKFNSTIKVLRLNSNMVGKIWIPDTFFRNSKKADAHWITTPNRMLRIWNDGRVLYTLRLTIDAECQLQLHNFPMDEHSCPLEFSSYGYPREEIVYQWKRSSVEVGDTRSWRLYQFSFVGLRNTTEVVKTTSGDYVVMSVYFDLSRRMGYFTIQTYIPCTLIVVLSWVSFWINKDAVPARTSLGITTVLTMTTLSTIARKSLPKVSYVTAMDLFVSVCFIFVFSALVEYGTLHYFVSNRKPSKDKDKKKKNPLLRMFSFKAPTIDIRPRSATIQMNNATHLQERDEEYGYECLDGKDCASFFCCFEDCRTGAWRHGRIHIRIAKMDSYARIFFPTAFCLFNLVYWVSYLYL

For `CC1(C)C(=O)N(c2ccc(C#N)c(C(F)(F)F)c2)C(=S)N1c1ccc(C(=O)O)c(F)c1` [(MI), 4-(3-(4-cyano-3-(trifluoromethyl)phenyl)-5,5-dimethyl-4-oxo-2-thioxoimidazolidin-1-yl)-2-fluorobenzoic acid], the inhibition (usually the relative decrease from the control value, in per cent) at 10 µM on Dopamine D1 (h) is -18%; at Bradykinin B1 (h), 0%; on Neurokinin NK1 (h) it was -7%; at GABA transaminase, -7%. For the same compound, the “% Inhibition of Control Specific Binding @ 10 μM” value (from here on “% Inhibition”) with Adrenergic α1 (ns) is −4%; in the assay on kainate it was −4%; in the assay with PCP, 0%; in the assay on AMPA, 1%. Besides, in assay [1] (antagonist protocol, Xenopus oocytes, read-out: α1β3γ2 receptor derived IC50), the IC50 (as a rule, the midpoint of a concentration-inhibition curve) came to 68.3 ± 6 µM.

`CC1(C)C(=O)N(c2ccc(C#N)c(C(F)(F)F)c2)C(=S)N1c1ccc(C(N)=O)c(F)c1` [(MII), 4-(3-(4-Cyano-3-(trifluoromethyl)phenyl)-5,5-dimethyl-4-oxo-2-thioxoimidazolidin-1-yl)-2-fluorobenzamide]: the inhibition at 10 µM was -14% on Dopamine D1 (h), 6% at Bradykinin B1 (h), 9% at Neurokinin NK1 (h) and -5% at GABA transaminase. The “% Inhibition” value in the assay with Adrenergic α1 (ns) is reported as −7%; in the assay on kainate, −21%; in the assay with PCP, 5%; in the assay on AMPA it was −10%.

Turning to `CC1(C)C(=O)N(c2ccc(C#N)c(C(F)(F)F)c2)C(=O)N1c1ccc(C(N)=O)c(F)c1` [(MIII), 4-(3-(4-cyano-3-(trifluoromethyl)phenyl)-5,5-dimethyl-2,4-dioxoimidazolidin-1-yl)-2-fluorobenzamide], the inhibition at 10 µM at Dopamine D1 (h) was -17%; on Bradykinin B1 (h) it was 5%; on Neurokinin NK1 (h) it was -9%; at GABA transaminase it was -2%. Also, the “% Inhibition” value in the assay with Adrenergic α1 (ns) is −5%; with kainate, −10%; with PCP it was 2%; in the assay on AMPA it was −2%.

On to `CNC(=O)c1ccc(N2C(=O)N(c3ccc(C#N)c(C(F)(F)F)c3)C(=O)C2(C)C)cc1F` [(MIV), 4-(3-(4-cyano-3-(trifluoromethyl)phenyl)-5,5-dimethyl-2,4-dioxoimidazolidin-1-yl)-2-fluoro-N-methylbenzamide], for which the inhibition at 10 µM is -17% on Dopamine D1 (h), 4% at Bradykinin B1 (h), -7% on Neurokinin NK1 (h) and -1% at GABA transaminase. The “% Inhibition” value was −3% in the assay with Adrenergic α1 (ns), −8% with kainate, 4% in the assay on PCP and −4% with AMPA. Moreover, in assay [1] (single exposure 30 sec), the “agonist activity at α1β3γ2 GABAA receptor (inward currents)” value is “did not evoke any detectable inward currents”.
